Experimental data as given in EP0000190A1, “Solutions with a local anesthetic effect” (Dr. Karl Thomae GmbH, priority 1977, dated 1979).

Tests used:
[1] = test system: Cornea; assay: Local anaesthetic effect (touch stimulus) and corneal epithelium status after eye drops in rabbits, versus Kerakain; type: in vivo; details: Kaninchen
Source text: Die überlegene kurzfristige lokalanästhetische Wirkung der neuen Lösungen wurde im Vergleich zu Proxymetacain (0,5%ige 2-Diäthyl-aminoäthyl-3-amino-4-propoxybenzoesäure-hydrochlorid-Lösung = Chibro® -Kerakain) am Kaninchen wie folgt geprüft: • Den Versuchstieren, die nach Spaltlampen-Untersuchung keine Schädigung des Cornea-Epithels zeigten und klinisch keine konjunktivale Entzündung aufwiesen, wurden jeweils 2 Tropfen der entsprechenden Augentropfen appliziert. Die Sensibilität der zentralen Cornea ist eine Minute nach Applikation durch Berührungsreiz, das gesamte Hornhautepithel und die Sensibilität 5, 10, 15 und 30 Minuten nach Applikation beurteilt worden. Der Untersuchen. der die Sensibilität und den Hornhaut-Epithel-Status beurteilte, war hierbei nicht darüber informiert, welches Auge jeden Tieres mit Chibro® -Kerakain behandelt war.
Die nachfolgende Tabelle enthält die aufgefundenen Versuchsergebnisse: […]

[2] = test system: Mund- bzw. Rachenschleimhaut; assay: Local anaesthesia of human mouth and throat mucosa after spray from a metering pump valve; type: in vivo, Mensch; details: 2%ige NA 872-Lösung, 3-8 Hübe des Pump-Dosier-Ventils, Mund- bzw. Rachenschleimhaut des Menschen, 6 Probanden
Source text: Die oben aufgezeigte Wirkung konnte unter Heranziehung des Aesthe-siometers nach Cochet und Bonnet am menschlichen Auge mit Tropf- bzw. bei der Anwendung als Spray-Applikation mit Hilfe des Pump-Dosier-Ventils an der Mund- bzw. Rachenschleimhaut bestätigt werden. Bei einer Konzentration von 0,5 bis 1 % NA 872 und der Appli kation von 1 bis 2 Tropfen pro Auge tritt die lokalanästhetische Wirkung innerhalb von 30 bis 60 Sekunden ein, die Wirkungsdauer betrug 15 bis 30 Minuten, bzw. bei der Applikation einer 2%igen NA 872-Lösung mittels 3-8 Hüben des Pump-Dosier-Ventils an der Mund- bzw.

[3] = Acute toxicity; details: mouse, in vivo, po, Maus, als Hydrochlorid
[4] = 0,5 % NA 872, 2 Tropfen, 5 Minuten nach Applikation
[5] = 1,0 % NA 872, 2 Tropfen, 5 Minuten nach Applikation
[6] = 1,0 % NA 872, 2 Tropfen, 10 Minuten nach Applikation
[7] = 1,0 % NA 872, 2 Tropfen, 15 Minuten nach Applikation
[8] = 2,0 % NA 872, 2 Tropfen, 5 Minuten nach Applikation
[9] = 2,0 % NA 872, 2 Tropfen, 10 Minuten nach Applikation
[10] = Augentropfen, conclusion from the table

Nc1c(Br)cc(Br)cc1CN[C@H]1CC[C@H](O)CC1 [NA 872, 2-Amino-3,5-dibrom-N-(trans-4-hydroxycyclohexyl)-benzylamin]
Erhobener Anästhesie-Befund (A) ([1]; 0,5 % NA 872, 2 Tropfen, 1 Minute nach Applikation): ++ | Erhobener Anästhesie-Befund (A) [1, 4]: + | Hornhaut-Befund (HH) [1, 4]: o.B. | Hornhaut-Befund (HH) ([1]; 0,5 % NA 872, 2 Tropfen, 10 Minuten nach Applikation): o.B. | Hornhaut-Befund (HH) ([1]; 0,5 % NA 872, 2 Tropfen, 15 Minuten nach Applikation): o.B. | Hornhaut-Befund (HH) ([1]; 0,5 % NA 872, 2 Tropfen, 30 Minuten nach Applikation): o.B. | Erhobener Anästhesie-Befund (A) ([1]; 1,0 % NA 872, 2 Tropfen, 1 Minute nach Applikation): ++ | Erhobener Anästhesie-Befund (A) [1, 5]: + | Hornhaut-Befund (HH) [1, 5]: o.B. | Erhobener Anästhesie-Befund (A) [1, 6]: + | Hornhaut-Befund (HH) [1, 6]: o.B. | Erhobener Anästhesie-Befund (A) [1, 7]: (+) | Hornhaut-Befund (HH) [1, 7]: o.B. | Hornhaut-Befund (HH) ([1]; 1,0 % NA 872, 2 Tropfen, 30 Minuten nach Applikation): o.B. | Erhobener Anästhesie-Befund (A) ([1]; 2,0 % NA 872, 2 Tropfen, 1 Minute nach Applikation): ++ | Erhobener Anästhesie-Befund (A) [1, 8]: ++ | Hornhaut-Befund (HH) [1, 8]: o.B. | Erhobener Anästhesie-Befund (A) [1, 9]: + | Hornhaut-Befund (HH) [1, 9]: o.B. | Hornhaut-Befund (HH) ([1]; 2,0 % NA 872, 2 Tropfen, 15 Minuten nach Applikation): o.B. | Hornhaut-Befund (HH) ([1]; 2,0 % NA 872, 2 Tropfen, 30 Minuten nach Applikation): o.B. | Nebenwirkung auf das Epithel im Vergleich zur Vergleichslösung [1, 10]: geringere Nebenwirkung auf das Epithel | lokalanästhetische Wirkung im Vergleich zur Vergleichslösung [1, 10]: kürzere lokalanästhetische Wirkung als die Vergleichslösung | Anästhesie [2]: leichte Anästhesie | LD50 [3]: 2720 mg/kg
